Source: the kinase profiling compilation of Christmann-Franck et al. (2016)

Assays:
Assay in all cases: radiometric filter-binding kinase assay
NUAK1 (human) = NUAK1 (human) (UniProt O60285)
GSK3B (human) = GSK3B (human) (UniProt P49841)
EPHB3 (human) = EPHB3 (human) (UniProt P54753)
PAK4 (human) = PAK4 (human) (UniProt O96013)
INSR (human) = INSR (human) (UniProt P06213); settings: compound 0.1 µM
MAP2K6 (human) = MAP2K6 (human) (UniProt P52564)
MARK1 (human) = MARK1 (human) (UniProt Q9P0L2)
MAP3K5 (human) = MAP3K5 (human) (UniProt Q99683)
Sequence of MAP3K5 (human) (Q99683 whole entry, looked up): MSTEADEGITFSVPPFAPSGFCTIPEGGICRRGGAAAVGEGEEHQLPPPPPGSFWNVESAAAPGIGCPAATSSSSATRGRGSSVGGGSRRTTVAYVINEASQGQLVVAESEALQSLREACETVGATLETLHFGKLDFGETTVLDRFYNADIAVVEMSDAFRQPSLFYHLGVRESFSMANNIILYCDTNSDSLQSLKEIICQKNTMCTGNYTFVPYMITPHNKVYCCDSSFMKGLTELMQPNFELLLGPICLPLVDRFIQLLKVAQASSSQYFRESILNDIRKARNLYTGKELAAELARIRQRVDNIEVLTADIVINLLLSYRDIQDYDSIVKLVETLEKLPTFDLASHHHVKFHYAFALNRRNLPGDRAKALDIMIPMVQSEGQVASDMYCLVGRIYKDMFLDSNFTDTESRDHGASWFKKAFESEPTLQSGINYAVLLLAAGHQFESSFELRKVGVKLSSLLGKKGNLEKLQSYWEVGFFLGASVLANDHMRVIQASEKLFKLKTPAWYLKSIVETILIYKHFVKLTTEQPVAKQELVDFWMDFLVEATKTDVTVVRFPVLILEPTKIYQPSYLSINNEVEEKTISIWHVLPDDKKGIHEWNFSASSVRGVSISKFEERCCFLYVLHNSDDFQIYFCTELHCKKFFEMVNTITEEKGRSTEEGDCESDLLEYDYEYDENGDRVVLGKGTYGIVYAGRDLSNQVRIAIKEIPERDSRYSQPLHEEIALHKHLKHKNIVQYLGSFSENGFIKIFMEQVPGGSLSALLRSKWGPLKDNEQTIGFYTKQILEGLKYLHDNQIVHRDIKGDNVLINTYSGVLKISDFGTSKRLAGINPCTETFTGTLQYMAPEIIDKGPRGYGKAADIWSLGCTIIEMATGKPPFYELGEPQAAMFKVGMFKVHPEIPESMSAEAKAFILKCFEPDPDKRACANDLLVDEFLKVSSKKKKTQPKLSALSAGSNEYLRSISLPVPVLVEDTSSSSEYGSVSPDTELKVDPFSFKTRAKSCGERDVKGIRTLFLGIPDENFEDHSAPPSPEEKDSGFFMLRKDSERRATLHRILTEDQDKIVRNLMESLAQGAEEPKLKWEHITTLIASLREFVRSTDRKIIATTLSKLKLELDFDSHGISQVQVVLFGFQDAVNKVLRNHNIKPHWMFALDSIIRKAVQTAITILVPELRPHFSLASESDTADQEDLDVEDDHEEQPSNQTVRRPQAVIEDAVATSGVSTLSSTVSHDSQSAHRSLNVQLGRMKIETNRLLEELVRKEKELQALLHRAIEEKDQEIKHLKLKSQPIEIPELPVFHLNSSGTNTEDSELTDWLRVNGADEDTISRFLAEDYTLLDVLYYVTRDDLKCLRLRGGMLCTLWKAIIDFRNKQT

MARK2 (human) = MARK2 (human) (UniProt Q7KZI7)
ERBB4 (human) = ERBB4 (human) (UniProt Q15303)
Sequence of ERBB4 (human) (Q15303 whole entry, looked up): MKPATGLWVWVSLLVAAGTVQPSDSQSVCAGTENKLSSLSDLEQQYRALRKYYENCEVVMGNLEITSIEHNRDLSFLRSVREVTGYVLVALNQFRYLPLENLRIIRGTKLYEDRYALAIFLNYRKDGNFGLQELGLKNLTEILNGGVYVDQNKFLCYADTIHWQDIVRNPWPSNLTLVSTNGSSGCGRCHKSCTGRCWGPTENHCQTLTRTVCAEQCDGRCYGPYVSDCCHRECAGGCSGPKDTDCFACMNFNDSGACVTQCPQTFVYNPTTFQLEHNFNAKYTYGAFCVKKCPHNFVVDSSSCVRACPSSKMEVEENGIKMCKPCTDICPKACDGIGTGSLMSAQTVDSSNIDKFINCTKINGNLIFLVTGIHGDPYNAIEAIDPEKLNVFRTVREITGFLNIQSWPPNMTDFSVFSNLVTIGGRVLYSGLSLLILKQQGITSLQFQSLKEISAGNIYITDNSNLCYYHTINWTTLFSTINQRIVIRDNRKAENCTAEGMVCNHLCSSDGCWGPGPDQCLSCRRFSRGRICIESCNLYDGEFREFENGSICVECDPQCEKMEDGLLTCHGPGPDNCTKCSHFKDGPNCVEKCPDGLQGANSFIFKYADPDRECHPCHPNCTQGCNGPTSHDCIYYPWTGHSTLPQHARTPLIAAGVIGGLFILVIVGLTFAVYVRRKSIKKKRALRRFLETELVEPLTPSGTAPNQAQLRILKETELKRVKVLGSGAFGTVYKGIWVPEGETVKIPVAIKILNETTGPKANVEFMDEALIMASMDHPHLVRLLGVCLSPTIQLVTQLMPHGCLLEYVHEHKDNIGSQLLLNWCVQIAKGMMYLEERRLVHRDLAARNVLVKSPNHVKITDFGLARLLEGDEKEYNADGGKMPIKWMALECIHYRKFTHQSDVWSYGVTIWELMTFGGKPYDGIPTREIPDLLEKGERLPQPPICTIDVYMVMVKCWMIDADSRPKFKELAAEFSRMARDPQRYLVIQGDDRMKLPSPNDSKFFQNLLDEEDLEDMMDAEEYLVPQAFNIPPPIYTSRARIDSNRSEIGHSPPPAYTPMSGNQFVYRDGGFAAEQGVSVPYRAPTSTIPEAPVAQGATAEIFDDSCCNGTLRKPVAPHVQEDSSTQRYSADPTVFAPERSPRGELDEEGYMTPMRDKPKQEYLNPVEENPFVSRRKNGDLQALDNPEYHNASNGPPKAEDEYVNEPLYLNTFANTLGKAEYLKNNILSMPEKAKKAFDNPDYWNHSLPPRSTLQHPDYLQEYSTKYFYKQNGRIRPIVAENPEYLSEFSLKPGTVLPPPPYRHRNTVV

MAPK12 (human) = MAPK12 (human) (UniProt P53778)
Sequence of MAPK12 (human) (P53778 whole entry, looked up): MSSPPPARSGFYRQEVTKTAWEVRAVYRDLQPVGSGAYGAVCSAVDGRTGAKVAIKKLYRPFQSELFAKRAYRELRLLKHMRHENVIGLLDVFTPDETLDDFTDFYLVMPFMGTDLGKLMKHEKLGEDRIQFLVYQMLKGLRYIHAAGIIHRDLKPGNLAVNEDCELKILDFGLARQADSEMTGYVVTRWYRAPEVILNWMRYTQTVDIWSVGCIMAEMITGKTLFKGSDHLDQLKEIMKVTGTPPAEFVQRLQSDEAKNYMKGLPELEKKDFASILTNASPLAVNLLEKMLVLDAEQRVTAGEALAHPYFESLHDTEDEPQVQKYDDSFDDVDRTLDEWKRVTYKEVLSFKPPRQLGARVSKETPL

DYRK2 (human) = DYRK2 (human) (UniProt Q92630)
BRSK1 (human) = BRSK1 (human) (UniProt Q8TDC3)
PRKCA (human) = PRKCA (human) (UniProt P17252)
MAP3K9 (human) = MAP3K9 (human) (UniProt P80192)
MARK4 (human) = MARK4 (human) (UniProt Q96L34)
[1] = target: STK11 CAB39 STRADA (human) (UniProt Q9Y376+Q7RTN6+Q15831)
MAP3K11 (human) = MAP3K11 (human) (UniProt Q16584)
PRKCZ (human) = PRKCZ (human) (UniProt Q05513)
EEF2K (human) = EEF2K (human) (UniProt O00418)
AURKA (human) = AURKA (human) (UniProt O14965)
HIPK3 (human) = HIPK3 (human) (UniProt Q9H422)
MAP2K2 (human) = MAP2K2 (human) (UniProt P36507)
PIM1 (human) = PIM1 (human) (UniProt P11309)
Sequence of PIM1 (human) (P11309 whole entry, looked up): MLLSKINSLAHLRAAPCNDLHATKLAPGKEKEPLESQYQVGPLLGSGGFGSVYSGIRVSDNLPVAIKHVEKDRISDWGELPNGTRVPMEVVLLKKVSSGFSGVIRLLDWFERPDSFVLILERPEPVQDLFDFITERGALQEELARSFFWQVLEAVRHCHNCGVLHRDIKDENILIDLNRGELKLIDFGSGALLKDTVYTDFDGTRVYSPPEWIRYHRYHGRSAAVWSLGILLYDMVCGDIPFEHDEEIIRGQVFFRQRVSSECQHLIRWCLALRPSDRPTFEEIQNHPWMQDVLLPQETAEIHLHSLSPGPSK

MST4 (human) = MST4 (human) (UniProt Q9P289)
PKN2 (human) = PKN2 (human) (UniProt Q16513)
IRAK4 (human) = IRAK4 (human) (UniProt Q9NWZ3)
MELK (human) = MELK (human) (UniProt Q14680)
MAPK9 (human) = MAPK9 (human) (UniProt P45984)
PAK6 (human) = PAK6 (human) (UniProt Q9NQU5)
EPHA2 (human) = EPHA2 (human) (UniProt P29317)
MAP3K1 (human) = MAP3K1 (human) (UniProt Q13233)
[2] = system: AKT1 (human), P31749 [S473D]
NTRK1 (human) = NTRK1 (human) (UniProt P04629)
MAP3K7 TAB1 (human) = MAP3K7 TAB1 (human) (UniProt Q15750+O43318)
MAPKAPK2 (human) = MAPKAPK2 (human) (UniProt P49137)

Sequence of MARK1 (human) (Q9P0L2 whole entry, looked up): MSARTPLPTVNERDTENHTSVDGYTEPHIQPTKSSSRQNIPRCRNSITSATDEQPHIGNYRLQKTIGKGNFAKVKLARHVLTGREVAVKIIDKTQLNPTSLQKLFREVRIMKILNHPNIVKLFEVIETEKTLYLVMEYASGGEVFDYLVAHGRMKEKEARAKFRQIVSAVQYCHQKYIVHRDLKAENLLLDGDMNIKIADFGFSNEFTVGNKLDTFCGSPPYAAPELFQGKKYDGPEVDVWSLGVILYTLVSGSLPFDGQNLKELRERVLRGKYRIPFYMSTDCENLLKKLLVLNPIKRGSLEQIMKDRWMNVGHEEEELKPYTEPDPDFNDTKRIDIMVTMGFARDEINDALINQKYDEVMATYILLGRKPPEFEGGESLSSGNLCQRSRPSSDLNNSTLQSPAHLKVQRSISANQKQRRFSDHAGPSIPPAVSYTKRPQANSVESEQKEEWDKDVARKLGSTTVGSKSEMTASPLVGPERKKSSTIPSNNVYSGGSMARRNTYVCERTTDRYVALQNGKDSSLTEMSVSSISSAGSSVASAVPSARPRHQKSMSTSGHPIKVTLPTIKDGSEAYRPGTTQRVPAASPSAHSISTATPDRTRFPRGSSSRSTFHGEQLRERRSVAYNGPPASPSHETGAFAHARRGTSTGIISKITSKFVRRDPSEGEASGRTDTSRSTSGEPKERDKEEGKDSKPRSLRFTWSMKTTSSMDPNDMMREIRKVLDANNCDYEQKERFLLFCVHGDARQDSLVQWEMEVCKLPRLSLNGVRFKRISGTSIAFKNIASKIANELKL
Sequence of PAK4 (human) (O96013 whole entry, looked up): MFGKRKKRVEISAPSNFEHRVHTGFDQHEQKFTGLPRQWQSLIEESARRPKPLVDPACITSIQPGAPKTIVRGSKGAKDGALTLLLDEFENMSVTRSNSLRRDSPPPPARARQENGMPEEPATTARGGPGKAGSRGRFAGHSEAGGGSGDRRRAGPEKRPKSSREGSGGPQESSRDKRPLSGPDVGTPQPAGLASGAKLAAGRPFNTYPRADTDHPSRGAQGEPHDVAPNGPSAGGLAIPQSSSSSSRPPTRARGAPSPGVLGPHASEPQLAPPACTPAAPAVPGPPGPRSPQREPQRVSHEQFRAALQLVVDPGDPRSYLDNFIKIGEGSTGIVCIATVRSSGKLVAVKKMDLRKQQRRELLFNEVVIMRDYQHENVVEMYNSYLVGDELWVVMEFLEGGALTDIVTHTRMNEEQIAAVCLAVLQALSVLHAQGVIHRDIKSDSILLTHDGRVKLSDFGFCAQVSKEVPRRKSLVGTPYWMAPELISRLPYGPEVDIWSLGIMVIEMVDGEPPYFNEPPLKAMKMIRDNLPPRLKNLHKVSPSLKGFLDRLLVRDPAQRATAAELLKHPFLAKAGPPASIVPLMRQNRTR

How did the residual activity (NUAK1 (human); compound 1.0 µM) turn out when `Cc1ccc(-c2ccc3c(ccc4sc5c(c43)NC[C@@H](C)NC5=O)n2)cn1` was run?
The residual activity was 102%.

What about the residual activity (NUAK1 (human); compound 10.0 µM) of the same molecule?
The residual activity was 58%.

What about the residual activity (GSK3B (human); compound 0.1 µM) of the same molecule?
Its residual activity is 126%.

What about the residual activity (GSK3B (human); compound 1.0 µM) of the same molecule?
The residual activity was 99%.

And the residual activity (GSK3B (human); compound 10.0 µM)?
The residual activity was 88%.

And the residual activity (EPHB3 (human); compound 0.1 µM)?
Its residual activity is 98%.

What about the residual activity (EPHB3 (human); compound 1.0 µM) of the same molecule?
Its residual activity is 88%.

And the residual activity (EPHB3 (human); compound 10.0 µM)?
The residual activity was 85%.

And the residual activity (PAK4 (human); compound 0.1 µM)?
Its residual activity is 103%.

And the residual activity (PAK4 (human); compound 1.0 µM)?
Its residual activity is 88%.

What about the residual activity (PAK4 (human); compound 10.0 µM) of the same molecule?
Its residual activity is 82%.

And the residual activity (INSR (human))?
The residual activity was 123%.

And the residual activity (MAP2K6 (human); compound 0.1 µM)?
The residual activity was 95%.

What about the residual activity (MAP2K6 (human); compound 10.0 µM) of the same molecule?
The residual activity was 91%.

And the residual activity (MARK1 (human); compound 0.1 µM)?
Its residual activity is 116%.

And the residual activity (MARK1 (human); compound 1.0 µM)?
Its residual activity is 107%.

And the residual activity (MARK1 (human); compound 10.0 µM)?
Its residual activity is 93%.

What about the residual activity (MAP3K5 (human); compound 0.1 µM) of the same molecule?
Its residual activity is 106%.

And the residual activity (MAP3K5 (human); compound 1.0 µM)?
Its residual activity is 80%.

What about the residual activity (MAP3K5 (human); compound 10.0 µM) of the same molecule?
Its residual activity is 10%.

And the residual activity (MARK2 (human); compound 0.1 µM)?
The residual activity was 116%.

And the residual activity (MARK2 (human); compound 1.0 µM)?
The residual activity was 113%.

And the residual activity (MARK2 (human); compound 10.0 µM)?
Its residual activity is 95%.

What about the residual activity (ERBB4 (human); compound 0.1 µM) of the same molecule?
Its residual activity is 92%.

And the residual activity (ERBB4 (human); compound 1.0 µM)?
Its residual activity is 105%.

And the residual activity (ERBB4 (human); compound 10.0 µM)?
The residual activity was 99%.

And the residual activity (MAPK12 (human); compound 0.1 µM)?
The residual activity was 108%.

And the residual activity (MAPK12 (human); compound 1.0 µM)?
Its residual activity is 115%.

What about the residual activity (MAPK12 (human); compound 10.0 µM) of the same molecule?
The residual activity was 97%.

What about the residual activity (DYRK2 (human); compound 0.1 µM) of the same molecule?
The residual activity was 101%.

What about the residual activity (DYRK2 (human); compound 1.0 µM) of the same molecule?
Its residual activity is 105%.

What about the residual activity (DYRK2 (human); compound 10.0 µM) of the same molecule?
The residual activity was 52%.

What about the residual activity (BRSK1 (human); compound 0.1 µM) of the same molecule?
The residual activity was 86%.

What about the residual activity (BRSK1 (human); compound 1.0 µM) of the same molecule?
The residual activity was 55%.

And the residual activity (BRSK1 (human); compound 10.0 µM)?
The residual activity was 29%.

What about the residual activity (PRKCA (human); compound 0.1 µM) of the same molecule?
The residual activity was 101%.

What about the residual activity (PRKCA (human); compound 10.0 µM) of the same molecule?
The residual activity was 90%.

And the residual activity (MAP3K9 (human); compound 0.1 µM)?
Its residual activity is 99%.

What about the residual activity (MAP3K9 (human); compound 1.0 µM) of the same molecule?
The residual activity was 95%.

And the residual activity (MARK4 (human); compound 0.1 µM)?
The residual activity was 107%.

And the residual activity (MARK4 (human); compound 1.0 µM)?
Its residual activity is 87%.

What about the residual activity (MARK4 (human); compound 10.0 µM) of the same molecule?
Its residual activity is 49%.

What about the residual activity ([1]; compound 0.1 µM) of the same molecule?
The residual activity was 118%.

And the residual activity ([1]; compound 1.0 µM)?
Its residual activity is 103%.

And the residual activity ([1]; compound 10.0 µM)?
Its residual activity is 97%.

And the residual activity (MAP3K11 (human); compound 0.1 µM)?
The residual activity was 114%.

What about the residual activity (MAP3K11 (human); compound 1.0 µM) of the same molecule?
Its residual activity is 102%.

What about the residual activity (MAP3K11 (human); compound 10.0 µM) of the same molecule?
The residual activity was 73%.

And the residual activity (PRKCZ (human); compound 0.1 µM)?
The residual activity was 115%.

And the residual activity (PRKCZ (human); compound 1.0 µM)?
The residual activity was 112%.

What about the residual activity (PRKCZ (human); compound 10.0 µM) of the same molecule?
The residual activity was 106%.

And the residual activity (EEF2K (human); compound 0.1 µM)?
The residual activity was 106%.

And the residual activity (EEF2K (human); compound 1.0 µM)?
The residual activity was 97%.

What about the residual activity (EEF2K (human); compound 10.0 µM) of the same molecule?
The residual activity was 85%.

What about the residual activity (AURKA (human); compound 1.0 µM) of the same molecule?
The residual activity was 102%.

And the residual activity (AURKA (human); compound 10.0 µM)?
The residual activity was 84%.

What about the residual activity (HIPK3 (human); compound 0.1 µM) of the same molecule?
The residual activity was 112%.

And the residual activity (HIPK3 (human); compound 1.0 µM)?
Its residual activity is 108%.

What about the residual activity (HIPK3 (human); compound 10.0 µM) of the same molecule?
Its residual activity is 96%.

And the residual activity (MAP2K2 (human); compound 0.1 µM)?
The residual activity was 113%.

What about the residual activity (MAP2K2 (human); compound 1.0 µM) of the same molecule?
Its residual activity is 108%.

And the residual activity (MAP2K2 (human); compound 10.0 µM)?
Its residual activity is 79%.

What about the residual activity (PIM1 (human); compound 0.1 µM) of the same molecule?
Its residual activity is 93%.

What about the residual activity (PIM1 (human); compound 1.0 µM) of the same molecule?
Its residual activity is 58%.

And the residual activity (PIM1 (human); compound 10.0 µM)?
Its residual activity is 17%.

And the residual activity (MST4 (human); compound 1.0 µM)?
The residual activity was 101%.

And the residual activity (MST4 (human); compound 10.0 µM)?
Its residual activity is 91%.

What about the residual activity (PKN2 (human); compound 0.1 µM) of the same molecule?
Its residual activity is 108%.

What about the residual activity (PKN2 (human); compound 1.0 µM) of the same molecule?
Its residual activity is 101%.

And the residual activity (PKN2 (human); compound 10.0 µM)?
The residual activity was 81%.

What about the residual activity (IRAK4 (human); compound 0.1 µM) of the same molecule?
Its residual activity is 94%.

And the residual activity (IRAK4 (human); compound 1.0 µM)?
Its residual activity is 62%.

What about the residual activity (IRAK4 (human); compound 10.0 µM) of the same molecule?
Its residual activity is 24%.

What about the residual activity (MELK (human); compound 0.1 µM) of the same molecule?
Its residual activity is 123%.

What about the residual activity (MELK (human); compound 10.0 µM) of the same molecule?
Its residual activity is 77%.

What about the residual activity (MAPK9 (human); compound 0.1 µM) of the same molecule?
Its residual activity is 123%.

What about the residual activity (MAPK9 (human); compound 1.0 µM) of the same molecule?
The residual activity was 111%.

What about the residual activity (MAPK9 (human); compound 10.0 µM) of the same molecule?
Its residual activity is 107%.

And the residual activity (PAK6 (human); compound 0.1 µM)?
The residual activity was 117%.

What about the residual activity (PAK6 (human); compound 1.0 µM) of the same molecule?
The residual activity was 106%.

What about the residual activity (PAK6 (human); compound 10.0 µM) of the same molecule?
Its residual activity is 116%.

And the residual activity (EPHA2 (human); compound 0.1 µM)?
The residual activity was 90%.

What about the residual activity (EPHA2 (human); compound 1.0 µM) of the same molecule?
The residual activity was 95%.

And the residual activity (EPHA2 (human); compound 10.0 µM)?
The residual activity was 76%.

And the residual activity (MAP3K1 (human); compound 0.1 µM)?
Its residual activity is 102%.

And the residual activity (MAP3K1 (human); compound 1.0 µM)?
The residual activity was 109%.

What about the residual activity (MAP3K1 (human); compound 10.0 µM) of the same molecule?
Its residual activity is 109%.

What about the residual activity ([2]; compound 0.1 µM) of the same molecule?
The residual activity was 109%.

And the residual activity ([2]; compound 1.0 µM)?
The residual activity was 97%.

What about the residual activity ([2]; compound 10.0 µM) of the same molecule?
The residual activity was 98%.

What about the residual activity (NTRK1 (human); compound 1.0 µM) of the same molecule?
Its residual activity is 100%.

What about the residual activity (NTRK1 (human); compound 10.0 µM) of the same molecule?
Its residual activity is 83%.

What about the residual activity (MAP3K7 TAB1 (human); compound 0.1 µM) of the same molecule?
The residual activity was 113%.

And the residual activity (MAP3K7 TAB1 (human); compound 1.0 µM)?
Its residual activity is 109%.

And the residual activity (MAP3K7 TAB1 (human); compound 10.0 µM)?
Its residual activity is 70%.

What about the residual activity (MAPKAPK2 (human); compound 0.1 µM) of the same molecule?
The residual activity was 24%.

And the residual activity (MAPKAPK2 (human); compound 1.0 µM)?
Its residual activity is 9%.

What about the residual activity (MAPKAPK2 (human); compound 10.0 µM) of the same molecule?
The residual activity was 2%.
